{"source": "patent US20160303251A1", "about": "“CONJUGATES OF GARFTASE INHIBITORS” (ENDOCYTE, INC., priority 2015, published 2016)", "key": {"KB cells": {"system": "KB cells", "test": "In vitro activity in KB cells (3H-thymidine incorporation)", "assay_type": "cell-based, human", "settings": "2 hr pulse at 37° C., chase up to 70 hr", "protocol": "Cells were seeded in 24-well Falcon plates and allowed to form nearly confluent monolayers overnight. After one rinse with 1 mL of fresh FFRPMI/HIFCS, each well received 1 mL of medium containing increasing concentrations of test agent (3 wells per sample). Cells were pulsed with targeted agents for 2 hr at 37° C., rinsed 4 times with 0.5 mL of medium, and then chased in 1 mL of fresh medium up to 70 hr. Cells were treated with non-targeted agent ECO347 for a continuous 72 h. Spent medium was aspirated from all wells and replaced with fresh medium containing 5 μCi/mL ^3H-thymidine. After a further 2 hr 37° C. incubation, cells were washed 3 times with 0.5 mL of PBS and then treated with 0.5 mL of ice-cold 5% trichloroacetic acid per well. After 15 min, the trichloroacetic acid. was aspirated and the cell material solubilized by the addition of 0.5 mL of 0.25 N sodium hydroxide for 15 min. Four hundred and fifty microliters of each solubilized sample were transferred to scintillation vials containing 3 mL of Ecolume scintillation cocktail and then counted in a liquid scintillation counter. Final tabulated results were expressed as the percentage of ^3H-thymidine incorporation relative to untreated controls and IC50 values calculated using Graphpad Prism software."}, "subcutaneous KB tumors": {"system": "subcutaneous KB tumors", "test": "Antitumor activity in KB tumor model", "assay_type": "in vivo, mice", "settings": "for PR, complete responses or cure: 1 μmol/kg", "protocol": "METHOD. Inhibition of Tumor Growth in Mice. Four to seven week-old mice (Balb/c or nu/nu strains) are purchased from Harlan Sprague Dawley, Inc. (Indianapolis, Ind.). […] For tumor cell inoculation, 1×10^6 M109 cells (a syngeneic lung carcinoma) in Balb/c strain, or 1×10^6 KB cells in nu/nu strain, in 100 μL are injected in the subcutis of the dorsal medial area (right axilla). Tumors are measured in two perpendicular directions every 2-3 days using a caliper, and their volumes are calculated as 0.5×L×W^2, where L=measurement of longest axis in mm and W=measurement of axis perpendicular to L in mm.\nDosing is initiated when the s.c. tumors have an average volume between 50-100 […] (t0), typically 8 days post tumor inoculation (PTI) for KB tumors, and 11 days PTI for M109 tumors. Test animals (5/group) are injected i.v., generally three times a week (TIW), for 3 weeks with varying doses, such as with 1 μmol/kg to 5 μmol/kg, of the conjugate or with an equivalent dose volume of PBS (control), unless otherwise indicated. Dosing solutions are prepared fresh each day in PBS and administered through the lateral tail vein of the mice.\nFemale Balb/c nu/nu mice were fed ad libitum with folate-deficient chow (Harlan diet #TD01013) for the duration of the experiment. KB tumor cells were inoculated subcutaneously at the right flank of each mouse. Mice were dosed after the tumors have reached a range of 107-152 mm^3 through the lateral tail vein under sterile conditions in a volume of 200 μL of phosphate-buffered saline (PBS).\nGrowth of each s.c. tumor was followed by measuring the tumor two times per week. Tumors were measured in two perpendicular directions using Vernier calipers, and their volumes were calculated as 0.5×L×W^2, where L=measurement of longest axis in mm and W=measurement of axis perpendicular to L in mm."}, "[1]": {"settings": "0.5 μmol/kg (EC1953 printed 0.5 mol/kg), TIW×2 wk, n=5"}, "[2]": {"settings": "1 μmol/kg (EC1953, EC 2014 printed 1 mol/kg), TIW×2 wk, n=5"}, "[3]": {"settings": "mice having subcutaneous KB tumors"}}}
{"compound": "Nc1nc2[nH]c(CCCc3ccc(C(=O)N[C@@H](CCC(=O)O)C(=O)O)s3)cc2c(=O)[nH]1", "note": "[AG94, reference compound]", "values": [{"measurement": "IC50", "setting": "KB cells; Homo sapiens", "value": 2.5, "unit": "nM"}, {"measurement": "PR, complete responses or cure", "setting": "subcutaneous KB tumors; TIW×2 wk, n=5", "value": "none of the treatment groups showed a PR, complete responses, or cure"}]}
{"compound": "Nc1nc2[nH]c(CCCCCCCC(=O)N[C@@H](CCC(=O)O)C(=O)O)cc2c(=O)[nH]1", "note": "[AG147, reference compound]", "values": [{"measurement": "IC50", "setting": "KB cells; Homo sapiens", "value": 1.2, "unit": "nM"}]}
{"compound": "CCCC(=O)OCN(C(=O)[C@@H](NC(=O)[C@H]1CCCCN1C)C(C)CC)[C@H](C[C@@H](OC(C)=O)c1nc(C(=O)N[C@@H](Cc2ccc(O)cc2)C[C@H](C)C(=O)NNC(=O)OCCSSCCC(=O)N[C@@H](CCC(=O)NC[C@H](O)[C@@H](O)[C@H](O)[C@H](O)CO)C(=O)N[C@@H](CCC(=O)O)C(=O)N[C@@H](CCC(=O)NC[C@H](O)[C@@H](O)[C@H](O)[C@H](O)CO)C(=O)N[C@@H](CCC(=O)O)C(=O)N[C@@H](CCC(=O)NC[C@H](O)[C@@H](O)[C@H](O)[C@H](O)CO)C(=O)N[C@@H](CSSCCOC(=O)CC[C@H](NC(=O)c2ccc(CCCc3cc4c(=O)[nH]c(N)nc4[nH]3)s2)C(=O)O)C(=O)O)cs1)C(C)C", "note": "(some centres unmarked) [EC1953]", "values": [{"measurement": "IC50", "setting": "KB cells", "value": 0.4, "unit": "nM"}, {"measurement": "CR (complete responses) of {PR, CR, cure}", "setting": "subcutaneous KB tumors; [1]", "value": 1}, {"measurement": "PR (partial responses) of {PR, CR, cure}", "setting": "subcutaneous KB tumors; [1]", "value": 3}, {"measurement": "cure of {PR, CR, cure}", "setting": "subcutaneous KB tumors; [2]", "value": 5}, {"measurement": "cure of {PR, CR, cure}", "setting": "subcutaneous KB tumors; 2 umol/kg, q5d×2 wk (independent dosing protocol)", "value": 5}, {"measurement": "cure of {PR, CR, cure}", "setting": "subcutaneous KB tumors; 2 μmol/kg, single dose, n=5", "value": 2}, {"measurement": "cures, observation period extended for 90 days", "setting": "subcutaneous KB tumors; 1 mol/kg (so in the source), TIW×2 wk", "value": "5/5"}, {"measurement": "cures, observation period extended for 90 days", "setting": "subcutaneous KB tumors; 2 mol/kg (so in the source), TIW×2 wk", "value": "5/5"}, {"measurement": "cure of {PR, CR, cure}", "setting": "subcutaneous KB tumors; 2 mol/kg (so in the source), TIW×2 wk, n=5", "value": 5}, {"measurement": "dose response", "setting": "subcutaneous KB tumors; [3]", "value": "shows a dose response"}, {"measurement": "efficacy compared to comparator", "setting": "subcutaneous KB tumors; [3]", "value": "more efficacious than the comparator folate-tubulysin conjugate"}]}
{"compound": "CCCC(=O)OCN(C(=O)[C@@H](NC(=O)[C@H]1CCCCN1C)C(C)CC)[C@H](C[C@@H](OC(C)=O)c1nc(C(=O)N[C@@H](Cc2ccc(O)cc2)C[C@H](C)C(=O)NNC(=O)OCCSSCCC(=O)N[C@@H](CCC(=O)NC[C@H](O)[C@@H](O)[C@H](O)[C@H](O)CO)C(=O)N[C@@H](CCC(=O)O)C(=O)N[C@@H](CCC(=O)NC[C@H](O)[C@@H](O)[C@H](O)[C@H](O)CO)C(=O)N[C@@H](CCC(=O)O)C(=O)N[C@@H](CCC(=O)NC[C@H](O)[C@@H](O)[C@H](O)[C@H](O)CO)C(=O)N[C@@H](CSSCCOC(=O)CC[C@H](NC(=O)CCCCCCCc2cc3c(=O)[nH]c(N)nc3[nH]2)C(=O)O)C(=O)O)cs1)C(C)C", "note": "(some centres unmarked) [EC2014]", "values": [{"measurement": "IC50", "setting": "KB cells", "value": 0.34, "unit": "nM"}, {"measurement": "cure of {PR, CR, cure}", "setting": "subcutaneous KB tumors; [2]", "value": 5}]}
{"compound": "tubulysin B-monohydrazide [reference compound]", "values": [{"measurement": "PR, complete responses or cure", "setting": "subcutaneous KB tumors; TIW×2 wk, n=5", "value": "none of the treatment groups showed a PR, complete responses, or cure"}]}
